In publication PMC3292407 (The Journal of Neuroscience, 2012):
Where “and” joins values, the source holds several entries; their conditions need not be identical. Identical values can stand only once. Like-named read-outs stand apart in the source and are kept apart here.

Columns and labels:
rats [1] = assay: Loss of Righting Reflex
GABAARs [2] = assay type: cell-based, rat; conditions: flumazenil (10 and 100 μM shown), cultured neurons
rats [3] = assay type: in vivo, rat; conditions: 20% EtOH/water (E/water-group)
GABAAR α4 subunit [4] = assay type: cell-based, rat; conditions: cultured neurons 24 hrs after EtOH 60 mM, 30 min
rats [5] = assay: Elevated-plus maze; assay type: in vivo, rat; conditions: 48 hr withdrawal after EtOH 3 g/kg i.p. (E/W), vs V/W-group
rats [6] = assay: Pentylenetetrazol; assay type: in vivo, rat; conditions: 48 hr withdrawal after EtOH 3 g/kg i.p. (E/W); PTZ 42 mg/kg
[7] = Plasma EtOH concentrations; assay type: in vivo, rat
GABAARs [8] = assay type: cell-based, rat; conditions: bath EtOH 60 mM, DGCs, naive rats
GABAAR α4 subunit [9] = assay: Western blot of total GABAAR α4 subunit in hippocampus 48 hr after withdrawal; assay type: in vivo, rat; conditions: hippocampus 48 hr after EtOH 3 g/kg i.p. (E/W), compared to V/W-group
GABAARs [10] = assay type: in vivo, rat
[11] = baseline mIPSCs, E/W: 48 hr after EtOH 5 g/kg gavage
[12] = baseline, E/W: 48 hr after EtOH 5 g/kg gavage
[13] = bath EtOH 60 mM, DGCs of V/W-group rats

In the case of CCOC(=O)c1ncn2c1CN(C)C(=O)c1cc(F)ccc1-2 [flumazenil, reference compound], the “Effect on EtOH-induced LORR” value (rats [1]; flumazenil 10 mg/kg co-injected with EtOH 3 g/kg (E3+F10), vs E3-group) is reported as “did not alter LORR”, the LORR duration (rats [1]; flumazenil 10 mg/kg with EtOH 3 g/kg and DHM 3 mg/kg (E3+D3+F10)) is reported as 56.1 ± 4.6 min and the LORR duration (rats [1]; flumazenil 10 mg/kg with EtOH 3 g/kg and DHM 10 mg/kg (E3+D10+F10)) is reported as 29.3 ± 4.8 min. The “LORR duration” value (rats [1]; flumazenil 20 mg/kg i.p. alone (F20)) was 0 min, the LORR duration (rats [1]; flumazenil 30 mg/kg with EtOH 3 g/kg and DHM 3 mg/kg (E3+D3+F30)) was 58.2 ± 3.9 min and the “LORR duration” value (rats [1]; flumazenil 200 mg/kg i.p. alone (F200)) was 0 min. The LORR induction (rats [1]; flumazenil 20, 200 mg/kg alone) was “did not induce LORR” and the “Effect on DHM (1 μM) enhancement of Itonic and mIPSCs” value (GABAARs [2]) was “inhibited the DHM enhancement on GABAAR-currents in a concentration-dependent manner”.
In the case of CCO [EtOH], the EtOH consumption (rats [3]; beginning of the 4th week) is reported as 7.4 ± 0.6 g/kg/day, the EtOH consumption (rats [3]; end of the 2nd week) is reported as 3.9 ± 1.4 g/kg/day and the “Increase in surface expression of GABAAR α4 protein” value (GABAAR α4 subunit [4]) is reported as 1.5 fold. For the same compound, the “Acute EtOH-induced LORR (tolerance)” value (rats [1]; 48 hr withdrawal after single EtOH 3 g/kg i.p. (E/W)) was 10.8 ± 3.8 min, the LORR duration (rats [1]; EtOH 3 g/kg i.p. alone (E3)) was 73.6 ± 8.0 min and 69.0 ± 11.3 min and the LORR onset (rats [1]; EtOH 3 g/kg i.p. alone (E3)) was 1.8 ± 0.2 min. The “LORR duration” value (rats [1]; EtOH 4 g/kg i.p. alone (E4)) was 112.8 ± 8.0 min, the “Additional LORR after the 30 min time point” value (rats [1]; EtOH, saline injected 30 min after EtOH) was 42 ± 9.1 min and the “Time in open and closed arms (EPM)” value (rats [5]) was “significantly shorter time in open arms and longer time in closed arms”. The PTZ-induced seizure duration (rats [6]) was 6.5 ± 1.1 min, the “Plasma [EtOH]” value ([7]; 30 min after EtOH 3 g/kg i.p. (E3)) was 334.9 ± 37.8 mg/dL and the “Plasma [EtOH]” value ([7]; 60 min after EtOH 3 g/kg i.p. (E3)) was 353.7 ± 35.4 mg/dL. For the same compound, the “Plasma [EtOH] at sampling time points (min) 5” value ([7]; EtOH 4 g/kg i.p. (E4)) was 365.5 ± 7.7, the “Plasma [EtOH] at sampling time points (min) 30” value ([7]; EtOH 4 g/kg i.p. (E4)) was 379.5 ± 5.9 and the “Plasma [EtOH] at sampling time points (min) 60” value ([7]; EtOH 4 g/kg i.p. (E4)) was 372.8 ± 5.4. The “Plasma [EtOH] at sampling time points (min) 90” value ([7]; EtOH 4 g/kg i.p. (E4)) was 361.6 ± 8.2, the “Plasma [EtOH] at sampling time points (min) 180” value ([7]; EtOH 4 g/kg i.p. (E4)) was 324.6 ± 21.4 and the “Plasma [EtOH] at sampling time points (min) 0” value ([7]; EtOH 4 g/kg i.p. (E4), 0 = 0 to 3 min) was 143.3 ± 23.4. The Itonic (GABAARs [8]) was 46.9 ± 1.4 pA and 44.8 ± 2.3 pA, the “mIPSCs (area)” value (GABAARs [8]) was 0.64 ± 0.02 nC and 0.78 ± 0.01 nC and the “Total α4 protein level” value (GABAAR α4 subunit [9]) was 184.0 ± 26.0%. The “mIPSC area before acute EtOH” value (GABAARs [10]; DGCs of E/W-group rats (EtOH 5 g/kg gavage, 48 hr withdrawal)) was 0.70 ± 0.03 nC, the “Decay time” value (GABAARs [10]; [11]) was 4.0 ± 0.4 ms and the “Frequency (HZ)” value (GABAARs [10]; [11]) was 11.4 ± 0.8 HZ. The “Rise time” value (GABAARs [10]; [11]) was 0.8 ± 0.3 ms, the “Itonic (pA)” value (GABAARs [10]; [12]) was 13.0 ± 1.0 pA and the “mIPSC amplitude (pA)” value (GABAARs [10]; [12]) was 38.3 ± 3.3 pA. The “mIPSC area (fC)” value (GABAARs [10]; [12]) was 698.0 ± 33.7 fC, the “mIPSC area with acute EtOH” value (GABAARs [10]; bath EtOH 60 mM, DGCs of E/W-group rats (EtOH 5 g/kg gavage, 48 hr withdrawal)) was 1.4 ± 0.04 nC and the “Itonic with acute EtOH” value (GABAARs [10]; [13]) was 62.1 ± 3.3 pA. For the same compound, the “mIPSC area with acute EtOH” value (GABAARs [10]; [13]) was 0.78 ± 0.05 nC.
